Reference: patent US10392428B2, “GLP-1 derivatives and uses thereof” (Novo Nordisk A/S, priority 2014, dated 2019)

Tests used:
human GLP-1 receptor [1] = molecular target: T1, human GLP-1 receptor (Homo sapiens, UniProt P43220); test: In vitro potency: CRE luciferase reporter gene assay in BHK cells expressing the human GLP-1 receptor; assay type: cell-based; settings: whole cell reporter gene assay, 3 h incubation, average of at least two replicates
T1 construct: expressed in transfected cells; host or cells: membrane preparation from BHK cells, clone FCW467-12A (parent line BHKTS13)
Description: The purpose of this example is to test the activity, or potency, of the GLP-1 derivatives in vitro. The in vitro potency is the measure of human GLP-1 receptor activation in a whole cell assay.
In vitro potency was determined by measuring the response of the human GLP-1 receptor in a reporter gene assay. The assay was performed in a stably transfected BHK cell line that expresses the human GLP-1 receptor and contains the DNA for the cAMP response element (CRE) coupled to a promoter and the gene for firefly luciferase (CRE luciferase). When the human GLP-1 receptor is activated it results in the production of cAMP, which in turn results in the luciferase protein being expressed. When assay incubation is completed the luciferase substrate (luciferin) is added and the enzyme converts luciferin to oxyluciferin to produce bioluminescence. The luminescence is measured as the readout for the assay.
The cells were cultured at 5% CO2 in cell culture medium. They were aliquoted and stored in liquid nitrogen. Before each assay an aliquot was taken up and washed twice in PBS before being suspended at the desired concentration in the assay specific buffer.
Assay medium consisted of DMEM w/o phenol red, 10 mM Hepes and 1χ Glutamax. The assay buffer consisted of 2% ovalbumin and 0.2% Pluronic F-68 in assay medium.
1) Cell stocks were thawed in a 37° C. water bath.
2) Cells were washed three times in PBS.
3) Cells were counted and adjusted to 5×10^3 cells/50 μl (1×10^5 cells/ml) in assay medium. A 50 μl aliquot of cells was transferred to each well in the assay plate.
4) Stocks of the test compounds and reference compounds were diluted to a concentration of 0.2 μM in assay buffer. […] 8) A 100 μl aliquot of steadylite plus reagent was added to each well of the assay plate. […] 10) Each assay plate was read in a BioTek Synergy 2 Multi-Mode Reader.
The data from the BioTek Synergy 2 Multi-Mode Reader were transferred to GraphPad Prism software. […]
A minimum of two replicates was measured for each sample. The reported EC50 values are averages of all of the measured values for each compound.

human GLP-1 receptor [2] = molecular target: T1, human GLP-1 receptor; test: GLP-1 receptor binding: competitive binding assay (125I-GLP-1, SPA) on isolated membranes at low and high HSA; settings: low HSA (max. 0.001% final assay concentration); read-out: Low HSA IC50
Description: The purpose of this example is to test the receptor binding of the GLP-1 derivatives in vitro. The receptor binding is a measure of affinity of a derivative for the human GLP-1 receptor.
Each derivative is added in a series of concentrations to isolated membranes containing the human GLP-1 receptor and displacement of the labelled ligand is monitored. The receptor binding is reported as the concentration at which half of the labelled ligand is displaced from the receptor, the IC50 value.
Buffer 1 consisted of 20 mM Na-HEPES plus 10 mM EDTA and pH was adjusted to 7.4. Buffer 2 consisted of 20 mM Na-HEPES plus 0.1 mM EDTA and pH was adjusted to 7.4. Assay buffer consisted of 50 mM HEPES supplemented with 5 mM EGTA, 5 mM MgCl2, 0.005% Tween 20 and pH was adjusted to 7.4. An 8% albumin stock consisted of HSA dissolved at 8% (w/v) in assay buffer. An 0.02% albumin stock consisted of HSA dissolved at 0.02% (w/v) in assay buffer.
The cells express the human GLP-1 receptor.
The cells were grown at 5% CO2 in DMEM, 10% fetal calf serum, 1% Pen/Strep (Penicillin/Streptomycin) and 1.0 mg/ml of the selection marker G418.
To make a membrane preparation the cells were grown to approximately 80% confluence. The cells were washed twice in phosphate-buffered saline and harvested. The cells were pelleted using a brief centrifugation and the cell pellet was kept on ice. […] The homogenate was centrifuged for 15 minutes. The pellet was re-suspended (homogenised) in 10 ml buffer 2 and centrifuged. This step was repeated once more. The resulting pellet was re-suspended in buffer 2 and the protein concentration was determined. The membranes were aliquoted and stored at minus 80° C.
For the receptor binding assay in the presence of low HSA (0.005%) 50 μl of the assay buffer was added to each well of an assay plate.
For the receptor binding assay in the presence of high HSA (2%) 50 μl of the 8% albumin stock was added to each well of an assay plate.
Cell membrane aliquots were thawed and diluted to their working concentration. Fifty μl were added to each well in the assay plate.
WGA SPA beads were suspended in assay buffer at 20 mg/ml. The suspension was diluted to 10 mg/ml in assay buffer just prior to addition to the assay plate. Fifty μl were added to each well in the assay plate.
A 25 μl aliquot was reserved for measuring total counts/well.
The assay plate was incubated for 2 h at 30° C.
The assay plate was centrifuged for 10 min.
The assay plate was read in a Packard TopCount NXT instrument.
The data from the TopCount instrument were transferred to Graph Pad Prism software. Individual replicates were analysed using non-linear regression. IC50 values were calculated by the software and reported in nM. The reported values are averages of all of the measured values for each compound.

[3] = test system: obese, diabetic mouse model (db/db mice); test: Pharmacodynamic study in db/db mice: acute effect on blood glucose and body weight; assay type: in vivo
Description: The purpose of the study is to verify the acute effect of the GLP-1 derivatives on blood glucose (BG) and body weight (BW) in a diabetic setting.
The GLP-1 derivatives of Examples 2-4 and 6-10 were tested in a single-dose study in an obese, diabetic mouse model (db/db mice) as described in the following.
Six db/db mice per compound to be tested (from Taconic, Denmark), fed from birth with the diet NIH31 (NIH 31M Rodent Diet, commercially available from Taconic Farms, Inc., US, see www.taconic.com), were enrolled for the study at the age of approximately 10 weeks. At arrival to the animal facility the mice were given free access to standard chow (e.g. Altromin 1324, Brogaarden, Denmark) and tap water and kept at 24° C. After 1-2 weeks of acclimatisation, the basal blood glucose was assessed twice on two consecutive days (i.e. at 9 am). The mice were allocated to treatment groups based on matching blood glucose levels and body weights. […]
On the day of dosing, blood glucose was assessed at time −½ h (8.30 am), the mice were weighed after this. […] On the day of dosing, blood glucose was assessed at times 1, 2, 4 and 8 h (10 am, 11 am, 1 pm and 5 pm) after dosing.
On the following days, the blood glucose was assessed at time 24 h, 48 h, 72 h, and 96 h (all Example compounds), and for the GLP-1 derivatives of Examples […] blood glucose was further assessed daily up to 240 h after dosing. […]
Samples for the measurement of blood glucose were obtained from the tail tip capillary of conscious mice. […] The glucose concentration was measured using the glucose oxidase method (glucose analyser Biosen 5040, EKF Diagnostic, GmbH, Germany). […]
The data are presented as percent change in blood glucose or body weight measured at the 48 h time points. For example, the percent change in blood glucose level at 48 h for each individual is calculated as follows: [[(blood glucose level at 48 h)−(basal blood glucose level)]/(basal blood glucose level)]×100%], where basal blood glucose level refers to the level before the administration of any treatment−and vice versa for the body weight change. […]

[4] = single s.c. dose 10 nmol/kg, 48 h vs basal

T1 sequence (P43220 24-463): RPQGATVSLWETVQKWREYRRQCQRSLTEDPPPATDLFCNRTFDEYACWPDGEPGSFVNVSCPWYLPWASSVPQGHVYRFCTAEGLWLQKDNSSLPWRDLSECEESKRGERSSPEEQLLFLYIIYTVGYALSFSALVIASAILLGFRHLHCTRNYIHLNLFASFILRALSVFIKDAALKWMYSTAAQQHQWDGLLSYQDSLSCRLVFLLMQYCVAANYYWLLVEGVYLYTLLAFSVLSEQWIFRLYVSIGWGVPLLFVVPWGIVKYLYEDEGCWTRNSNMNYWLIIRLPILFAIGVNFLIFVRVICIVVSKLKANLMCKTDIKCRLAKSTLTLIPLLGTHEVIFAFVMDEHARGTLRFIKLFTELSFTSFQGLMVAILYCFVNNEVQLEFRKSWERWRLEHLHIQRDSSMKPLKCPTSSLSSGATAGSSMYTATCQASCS

EC50 (human GLP-1 receptor [1]): 0.15 nM
IC50 (human GLP-1 receptor [2]): 19 nM
SMILES: CC[C@H](C)[C@H](NC(=O)[C@H](Cc1ccccc1)NC(=O)[C@H](CCC(=O)O)NC(=O)[C@H](CCCNC(=N)N)NC(=O)[C@H](C)NC(=O)[C@H](C)NC(=O)[C@H](CCC(N)=O)NC(=O)[C@H](CCC(=O)O)NC(=O)[C@H](CCC(=O)O)NC(=O)[C@H](CC(C)C)NC(=O)[C@H](Cc1ccc(O)cc1)NC(=O)[C@H](CO)NC(=O)[C@H](CO)NC(=O)[C@@H](NC(=O)[C@H](CC(=O)O)NC(=O)[C@H](CO)NC(=O)[C@@H](NC(=O)[C@H](Cc1ccccc1)NC(=O)[C@@H](NC(=O)CNC(=O)[C@H](CCC(=O)O)NC(=O)C(C)(C)NC(=O)[C@@H](N)Cc1c[nH]cn1)[C@@H](C)O)[C@@H](C)O)C(C)C)C(=O)N[C@@H](C)C(=O)N[C@@H](Cc1c[nH]c2ccccc12)C(=O)N[C@@H](CC(C)C)C(=O)N[C@H](C(=O)N[C@@H](CCCNC(=N)N)C(=O)NCC(=O)N[C@@H](CCCNC(=N)N)C(=O)N[C@@H](CCCCNC(=O)[C@@H](N)CCCCNC(=O)[C@@H](N)CCCCNC(=O)[C@@H](N)CCCCNC(=O)[C@@H](N)CCCCNC(=O)[C@H](CCCCNC(=O)CC[C@H](NC(=O)[C@H]1CC[C@H](CNC(=O)CCCCCCCCCCCCCCCCCCC(=O)O)CC1)C(=O)O)NC(=O)CC[C@H](NC(=O)[C@H]1CC[C@H](CNC(=O)CCCCCCCCCCCCCCCCCCC(=O)O)CC1)C(=O)O)C(=O)O)C(C)C [Example 10, N{Epsilon-37}-[(2S)-2-amino-6-[[(2S)-2-amino-6-[[(2S)-2-amino-6-[[(2S)-2-amino-6-[[(2S)-2,6-bis[[(4S)-4-carboxy-4-[[4-[(19-carboxynonadecanoylamino)methyl]cyclohexanecarbonyl]amino]butanoyl]amino]hexanoyl]amino]hexanoyl]amino]hexanoyl]amino]hexanoyl]amino]hexanoyl]-[Aib8,Glu22,Arg26,Arg34,Lys37]-GLP-1-(7-37)-peptide]
effect on BG ([3]; after 48 h, single s.c. injection of either 3, 10 or 30 nmol/kg): not as pronounced
% change in blood glucose [3, 4]: −3%
% change in body weight [3, 4]: −3%
